SMILES strings stand for the structures.

The test system of series [1] is patient-derived organoids (PDOs). Put plainly: Viability of patient-derived organoids of multiple tumor types (CellTiter-Glo, 5 days). In kind it is cell-based, human. As to the method:
PDOs were treated with Compound 1 or controls (vehicle control—0.1% DMSO, positive control—10% DMSO) for 5 days. Viability was assessed using the CellTiter-Glo® assay. IC50 and maximal (max) inhibition values were extrapolated from the viability curves. Exemplars of models deemed to be highly responsive (>60% max inhibition; A), responsive (40-60% max inhibition; B), and non-responsive (<40% max inhibition; C) to Compound 1 are shown. Summary of all models tested (D); NR (No Regression, ambiguous nonlinear regression curves or R2<0.65) and NA (Not Applicable, ambiguous maximum inhibition). Compiled data of N=4 replicates.
Potency of Compound 1 was evaluated in a panel of patient-derived organoids (PDOs) representative of multiple tumor types.
• 1. Cryopreserved samples (200-300 mg or more depending on study design) were prepared as described below. • 2. The collected tumors were dissociated manually (using a tumor mincing process previously developed) or using the Gentle MACS Dissociator and human Tumor Dissociation Kit (Miltenyi). After preparation, tumor fragments were cultured in DMEM+10% FBS+1× antibiotic/antimycotic (“anti-anti”) plus 1:500 Primocin antimicrobial agent for up to 7 days before filtering out large fragments (using a 500 μm filter followed by 200 μm filters). • 3. Flow-through was cultured in: Cell-Tak coated low volume flat-bottom 384-well assay plates. • 4. 10× concentrations of test agent (or DMSO as vehicle) was added to media in volumes that will vary depending on culturing conditions. • 5. Each group had quadruplicate wells, including 0.1% DMSO (final as vehicle) and 10% DMSO as positive control. • 6. PBS was plated in the perimeter wells to avoid edge-effect artifacts. • 7. Cells were treated for 5 days and viability read via Cell Titer Glo. Viability was quantitatively assessed via Cell Titer Glo at Day 0 (baseline), Day 6 (baseline), and Day 6 (compound treatment-full dose response). […]
For orientation: Cellular ATP, detected with luciferase, serves as a proxy for viable cell number.

The subject of a further series is A549 tumors. Put plainly: Lung adenocarcinoma xenograft model. In kind it is in vivo, nude mice. Conditions: for Highest TGI (%): Day 7. The procedure: FIG. 13A-13B show efficacy of Compound 1 in a lung adenocarcinoma xenograft model (A549). A) In vitro potency of Compound 1 in A549 cells as evaluated by ATPlite 1Step™ Perkin Elmer (performed by NTRC Oncolines). B) A549 cells (5×10^6) were implanted subcutaneously in athymic female nude mice and tumors were allowed to grow to a volume of ˜112 mm^3 followed by randomization of animals into three (3) groups (vehicle control, 75 mg/kg, 150 mg/kg Compound 1) with 12 animals per group. A Compound 1 solid dispersion was prepared prior to each dosing and administered by oral gavage two times a day (BID). Mean tumor volume of each group over time and the growth of tumor in each individual animal was graphed. For each individual animal of […] group TGI (%) was calculated based on the tumor growth inhibition of individual tumor at each given day of the study compared to the average of the group for that given day of the study. P-values were calculated using two-tailed distribution and two-sample equal variance (homoscedastic) for each group treated with Compound 1 for each given day of the study in reference to vehicle control. NS p>0.05; *p≤0.05; **p≤0.01; ***p p≤0.001; **** p≤0.0001.
Anti-tumor efficacy of Compound 1 was evaluated against three (3) different preclinical oncology mice models of colorectal cancer, prostate cancer, and lung adenocarcinoma (see Table 5 below). For this purpose, an oral formulation of Compound 1 was used.
A549 is a human lung adenocarcinoma cell line isolated from the lung tissue of their origin. […] A549 cells were implanted subcutaneously in nude mice and tumors were allowed to grow to an average volume of 112 mm^3 followed by randomization into three (3) groups consisting of vehicle control, 75 mg/kg and 150 mg/kg Compound 1 (12 animals per group). A Compound 1 solid dispersion was administered by oral gavage two times a day (BID). All animals remained in the study until Day 28 except one animal from Group 3 (Animal #29), which exited the study on Day 11 due to more than 20% body weight loss. This animal was excluded from all analysis. Data from Day 14-18 were excluded from the analysis due to inconsistencies in data collection methods.

A further series has as its system C6 cells. Nature of the series: In vitro potency in glioblastoma cells, Realtime-Glo assay. Format: cell-based. Particulars: Rattus norvegicus, FIG. 14A, read-out: In vitro potency (anti-cancer activity). The source says:
(§1) FIG. 14A-14E show the efficacy of Compound 1 in glioblastoma cell lines in vitro and in a glioblastoma rat model (C6). A) In vitro potency of Compound 1 in four different glioblastoma cell lines as evaluated by Realtime-Glo™ assay (C6, and U87 cells) or ATPlite 1Step™ Perkin Elmer (performed by NTRC Oncolines; T98G and A-172 cells). B) Study design overview: C6 rat glioma cells (3×10^5) were implanted into the right entorhinal cortex/subiculum region of male Sprague Dawley rats and tumor burden was assessed 14 days post inoculation using MRI and animals randomized into […] (4) groups (vehicle control, 5 mg/kg, 10 mg/kg, and 20 mg/kg Compound 1) with 4 animals per group. […] C) Body weights were measured every two days. […]
(§2) Glioblastoma (GBM) is the most common and highly malignant form of primary brain tumor with a poor prognosis despite advances in treatments. […] Accordingly, the in vitro potency of Compound 1 was examined in four different glioblastoma cell lines as evaluated by Realtime-Glo™ assay (C6, and U87 cells) or ATPlite 1Step™ Perkin Elmer (performed by NTRC Oncolines; T98G and A-172 cells). […] Therefore, the in vivo tumor activity of Compound 1 was next assessed in Sprague Dawley rats implanted with C6 rat glioma cells into the right entorhinal cortex/subiculum region (AP: −7 mm; ML: 4.5 mm, DV: 5 mm). […]

For a further series, the system named is U87 cells. Described as above. In kind it is cell-based. Particulars: Homo sapiens, U-87 MG, FIG. 14A, read-out: In vitro potency (anti-cancer activity).
From the text: as §1, §2

Consider `COc1ccccc1-c1nc(CNC(=O)c2ccccc2OC(F)F)n[nH]1` [Compound 1, 2-(difluoromethoxy)-N-[[5-(2-methoxyphenyl)-1H-1,2,4-triazol-3-yl]methyl]benzamide], for which the “Response of PDO models (max inhibition class)” value is “responsive (responsive (40-60% max inhibition))” in series [1] (Glioblastoma multiforme, SCLC, ovarian, endometrial, breast, prostate cancer, renal cell carcinoma); “non-responsive (non-responsive (<40% max inhibition))” in series [1] (colorectal cancer (FIG. 7C)); “highly responsive (highly responsive (>60% max inhibition))” in series [1] (endometrial cancer, SCLC, sarcoma, breast cancer, NSCLC, ovarian cancer). Further, the “Highest TGI (%)” value with A549 tumors (75 mg/kg BID oral) was 36.61%; with A549 tumors (150 mg/kg BID oral), 55.43%. Besides, the “Maximum TGI (%), end of the study” value in the series on A549 tumors (150 mg/kg dose) came to 34.64%. Further, the Body weight entry in the series on A549 tumors (75 and 150 mg/kg) is given as “no drug effect”. In the series with A549 tumors (all doses evaluated, FIG. 13B), the Average tumor growth result is “decreased the average tumor growth at all doses evaluated”. Moreover, the IC50 in the series on C6 cells was found to be 42 nM; with U87 cells, 89 nM.

Source of the values: US20240342138A1, “MICROTUBULE TARGETING AGENTS” (BPGbio, Inc., priority 2023, published 2024).
